The subject of one experiment is A2780. The experiment in a line: Growth inhibition of human A2780 cells by Sulforhodamine B assay. The format is functional.
For another experiment, the system named is HL-60. The experiment can be described thus: Growth inhibition of human HL60 cells by Sulforhodamine B assay. The format is functional. A general note: The SRB assay estimates cell density from bound dye.
A short description of experiment [1]: Inhibition of serine protease (unknown origin). Also noted: species or system Homo sapiens.
Experiment [2] concerns the target Opioid receptors; mu/kappa/delta (Homo sapiens) (UniProt P41145+P41143+P35372). The experiment in a line: Inhibition of opioid receptor (unknown origin) at […].
A short description of experiment [3]: Inhibition of HIV protease. Also noted: species or system Human immunodeficiency virus.
A short description of experiment [4]: Inhibition of thermolysin metalloprotease (unknown origin). Also noted: species or system Homo sapiens.
The next experiment has as its system HepG2. The experiment can be described thus: Growth inhibition of human HepG2 cells. The format is functional, cell-based.

Here are results for 14 compounds from ChEMBL document CHEMBL2311317, “Organosilicon molecules with medicinal applications” (J Med Chem, 2013).

pEC50, pIC50, pKi: −log10 of the molar value. Calls of active or inactive are those of the source. No cut-off for these calls is given here.

Chain of Opioid receptors; mu/kappa/delta (Homo sapiens) (P35372 whole entry, looked up): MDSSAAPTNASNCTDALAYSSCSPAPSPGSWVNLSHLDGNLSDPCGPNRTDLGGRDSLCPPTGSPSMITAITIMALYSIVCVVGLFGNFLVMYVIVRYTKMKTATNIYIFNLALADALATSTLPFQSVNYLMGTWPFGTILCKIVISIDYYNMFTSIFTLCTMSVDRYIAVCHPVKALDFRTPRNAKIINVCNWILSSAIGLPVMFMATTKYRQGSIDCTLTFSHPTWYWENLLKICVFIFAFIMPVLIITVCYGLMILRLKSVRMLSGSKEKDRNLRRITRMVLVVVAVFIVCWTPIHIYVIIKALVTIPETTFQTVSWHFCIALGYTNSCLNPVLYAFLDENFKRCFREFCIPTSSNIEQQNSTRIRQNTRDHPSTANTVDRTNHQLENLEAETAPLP
Chain of Opioid receptors; mu/kappa/delta (Homo sapiens) (P41143 whole entry, looked up): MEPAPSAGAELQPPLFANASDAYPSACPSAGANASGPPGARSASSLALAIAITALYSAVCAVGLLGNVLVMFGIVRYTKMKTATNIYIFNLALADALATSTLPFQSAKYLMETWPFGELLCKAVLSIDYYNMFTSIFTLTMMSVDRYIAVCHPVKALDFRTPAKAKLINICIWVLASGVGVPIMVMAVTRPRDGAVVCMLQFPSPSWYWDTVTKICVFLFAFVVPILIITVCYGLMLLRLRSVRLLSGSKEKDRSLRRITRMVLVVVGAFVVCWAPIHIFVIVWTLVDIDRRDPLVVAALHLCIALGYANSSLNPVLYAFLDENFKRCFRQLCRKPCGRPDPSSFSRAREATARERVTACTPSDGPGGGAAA
Chain of Opioid receptors; mu/kappa/delta (Homo sapiens) (P41145 whole entry, looked up): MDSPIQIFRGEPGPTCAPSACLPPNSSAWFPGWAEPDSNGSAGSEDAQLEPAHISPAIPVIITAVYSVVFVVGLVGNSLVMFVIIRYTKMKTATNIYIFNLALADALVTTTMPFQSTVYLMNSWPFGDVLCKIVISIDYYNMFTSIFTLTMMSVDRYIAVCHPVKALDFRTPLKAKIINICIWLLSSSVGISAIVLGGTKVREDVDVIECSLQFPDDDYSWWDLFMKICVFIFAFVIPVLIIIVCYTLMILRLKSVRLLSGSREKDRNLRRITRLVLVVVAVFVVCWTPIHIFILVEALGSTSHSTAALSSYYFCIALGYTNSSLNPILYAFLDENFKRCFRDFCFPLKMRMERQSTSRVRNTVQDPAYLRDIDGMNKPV

Regarding `COC(=O)/C=C\[C@H]1OCCC[C@H]1O[Si](C)(C)C(C)(C)C` (relative stereo), the GI50 (in general, the concentration giving 50% growth inhibition) with A2780 worked out at 7.3 µM.

Turning to `COC(=O)/C=C/C[C@H]1OCCC[C@@H]1O` (relative stereo), the GI50 entry in the experiment with HL-60 is “inactive”.

Consider `C[C@H](C[Si](O)(O)[C@H](Cc1ccccc1)NC(=O)[C@@H]1CCCN1)C(N)=O`, for which the pKi (usually −log10 of the Ki, conventionally taken in molar units) in experiment [1] was 6.97.

As for `CN(C)CC(c1ccccc1)[Si]1(O)CCCCC1` (centres undefined), the inhibition (as a rule, the percentage by which the read-out fell short of the control) in experiment [2] was less than 50%.

`COC(=O)/C=C/[C@H]1OCCC[C@H]1O[Si](C)(C)C(C)(C)C`: the GI50 in the experiment on A2780 came out at 98 µM.

As to `CC(C)(C)[Si](C)(C)O[C@@H]1CCCO[C@@H]1/C=C\CO` (relative stereo), the GI50 with A2780 is greater than 100 µM.

For `COC(=O)/C=C/C[C@H]1OCCC[C@@H]1OC(C)=O`, the GI50 entry in the experiment on HL-60 was “inactive”.

Regarding `O=C(N[C@H]1c2ccccc2C[C@H]1O)[C@H](Cc1ccccc1)C[Si](O)(O)C[C@@H](Cc1ccccc1)C(=O)N[C@H]1c2ccccc2C[C@H]1O`, the negative-log IC50 (pIC50) (in general, −log10 of the IC50, conventionally taken in molar units) in experiment [3] is 7.85.

With `COc1ccc(C(CN(C)C)[Si]2(O)CCCCC2)cc1` (racemic), the inhibition in experiment [2] is less than 50%.

In the case of `CC(C)C[C@H](NC(=O)[C@H](Cc1ccccc1)C[Si](O)(O)CNC(=O)CCc1ccccc1)C(=O)O`, in experiment [4], the pIC50 is 7.39.

Regarding `COC(=O)/C=C/C[C@H]1OCCC[C@@H]1OC(=O)c1ccccc1` (relative stereo), in the experiment on HL-60, the GI50 entry is “inactive”.

`COC(=O)/C=C/C[C@H]1OCCC[C@@H]1O[Si](C)(C)C(C)(C)C` (relative stereo) showed a GI50 in the experiment with HL-60 of 22 µM.

Consider `COc1ccc([Si](C)(C)[C@H]2[C@H](CC(=O)N3CCC[C@H]3CO)O[C@@]3(C(=O)N(Cc4cccc(I)c4)c4ccccc43)[C@@H]2C)cc1`, for which the pEC50 (as a rule, the EC50 on a negative log10 scale, so that one unit is a factor of ten) with HepG2 was 4.77.

As for `COc1ccc(C(CN(C)C)[Si]2(O)CCCC2)cc1` (centres undefined), in experiment [2], the inhibition was less than 50%.
